From patent US4585757A, “Hypotensive active peptides” (Texas Tech University Health Sciences Center, priority 1984, dated 1986)
Read-outs that look alike come from different tables or passages of the source. Peptide text beside a SMILES is read from it.

Tests used:
[1] = tested on: rat tail artery helical strip; design: dose or concentration left out as unconfirmed; details: strips contracted with arginine vasopressin
Description: Male and female Sprague-Dawley rats were anesthetized with pentobarbital (50 mg/kg) before removal of the tail artery. Upon isolation the artery was placed in ice cold Krebs-Hensleit solution (KHS) which was oxygenated with 95% O2, 5% CO2. The vessels were cut helically and strips of approximately 1.5 cm were secured in a Sawyer-Bartleston chamber containing KHS. The development of force of the helical strips was measured with a Grass FT.03 force displacement transducer and recorded on a Grass Model 79D polygraph. Isolated tail artery helical strips were equilibrated for one hour prior to addition of any peptide. In all cases, the strips were first contracted by adding arginine vasopressin (AVP), to the bath. The peptide being studied was then added to the bath and the degree of relaxation was determined.

Mongrel dogs = assay: dog blood pressure assay; assay type: in vivo; details: dose 3 × 10^-9 moles/kg, mean of 4 replications
Description: The dog blood pressure assay was conducted according to the following method:
Mongrel dogs of either sex weighing between 6-15 kg were anesthetized by intravenous injection of sodium pentobarbital (30 mg/kg). The femoral artery and vein were cannulated for the measurement of blood pressure and the injection of drugs, respectively. Arterial blood pressure was determined with a Statham pressure transducer and was recorded on a Grass polygraph. Mean arterial pressure (MAP) were calculated for the periods before and after each peptide injection. A tracheotomy was performed to insure a patient airway for spontaneous respiration.
Hypotensive screening studies involved injecting each dog with 0.1; 0.5; 1.0; and 2.0 ug/kg. The CIP as supplied by Peninsula Laboratories was in the lyophilyzed form. Prior to injection the CIP was dissolved in saline.

Sprague-Dawley rats = assay: rat blood pressure assay; assay type: in vivo; details: anesthetized rat, mean of 4 replications
Description: The rat blood pressure assay was conducted as follows: Sprague-Dawley rats of both sexes, weighing between 100 and 200 grams, were anesthetized with sodium pentobarbital and the right carotid artery and jugular vein were cannulated with polyethylene tubing PE50. The hypotensive peptide was administered and blood pressure was recorded in the anesthetized rats as described above for dogs.

Compound	Tension change ([1]; dose of 100) [gm]	Tension change ([1]; dose of 200) [gm]	Tension change ([1]; dose of 500) [gm]	other results
N=C(N)NCCC[C@H](N)C(=O)O [L Arg, L-arginine]	0	0	0	–
NC(N)=NCCC[C@H](NC(=O)[C@H](Cc1ccccc1)NC(=O)[C@@H]1CCCN1C(=O)[C@H](CO)NC(=O)[C@H](Cc1ccccc1)NC(=O)CNC(=O)[C@@H]1CCCN1C(=O)[C@@H]1CCCN1C(=O)[C@@H](N)CCCN=C(N)N)C(=O)O [Bradykinin] (H-RPPGFSPFR-OH)	–	–	–	Maximum Decrease in Blood Pressure (Mongrel dogs): 44 mmHg
O=C(O)[C@@H]1CCCN1 [L Pro, L-proline]	0	0	0	–
Thy-Pro-Arg-Lys [Contraceptive tetrapeptide]	–	–	–	Blood Pressure Decrease (Sprague-Dawley rats; dose 100.0 ug/kg): 2 mmHg; Blood Pressure Decrease (Sprague-Dawley rats; dose 200.0 ug/kg): 3 mmHg; Blood Pressure Decrease (Sprague-Dawley rats; dose 500.0 ug/kg): 9 mmHg; Blood Pressure Decrease (Sprague-Dawley rats; dose 1000.0 ug/kg): 13 mmHg; Blood Pressure Decrease (Sprague-Dawley rats; dose 2000.0 ug/kg): 15 mmHg
